Active and inactive are the calls of the source. For most assays here, no stated cut-off is given here; in the data, actives have a measured Kd and inactives only a lower limit.

Among the data in ChEMBL document CHEMBL3991601, “The target landscape of clinical kinase drugs” (Science, 2017) are Kd values, retold here.

The target of test [1] is Myosin light chain kinase, smooth muscle (Homo sapiens, UniProt Q15746).
Test [2] addresses T1, Ras-related protein Rab-27A (Homo sapiens, UniProt P51159).
T1 sequence (P51159 whole entry): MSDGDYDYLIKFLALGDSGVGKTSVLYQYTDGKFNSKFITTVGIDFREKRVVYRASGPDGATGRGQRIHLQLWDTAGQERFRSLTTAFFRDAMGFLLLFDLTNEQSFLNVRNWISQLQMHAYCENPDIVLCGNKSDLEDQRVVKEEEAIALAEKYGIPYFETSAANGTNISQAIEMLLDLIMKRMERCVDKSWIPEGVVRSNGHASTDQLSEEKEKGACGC

Test [3] concerns the target T2, Delta(24)-sterol reductase (Homo sapiens, UniProt Q15392).
T2 sequence (Q15392 whole entry): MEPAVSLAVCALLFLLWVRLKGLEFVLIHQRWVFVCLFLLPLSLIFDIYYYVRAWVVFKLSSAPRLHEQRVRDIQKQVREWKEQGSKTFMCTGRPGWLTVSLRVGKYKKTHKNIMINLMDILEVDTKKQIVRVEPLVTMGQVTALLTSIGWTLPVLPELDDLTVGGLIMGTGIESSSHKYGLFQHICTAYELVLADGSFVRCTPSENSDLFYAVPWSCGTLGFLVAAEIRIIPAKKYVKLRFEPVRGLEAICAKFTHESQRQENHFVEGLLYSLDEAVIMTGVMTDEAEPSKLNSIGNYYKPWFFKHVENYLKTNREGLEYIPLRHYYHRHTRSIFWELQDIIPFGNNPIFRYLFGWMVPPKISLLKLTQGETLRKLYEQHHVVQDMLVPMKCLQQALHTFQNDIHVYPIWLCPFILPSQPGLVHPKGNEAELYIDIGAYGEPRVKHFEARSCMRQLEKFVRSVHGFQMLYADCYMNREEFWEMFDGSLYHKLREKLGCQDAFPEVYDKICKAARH

The target in test [4] is Citron Rho-interacting kinase (Homo sapiens, UniProt O14578).
Test [5] addresses Mitogen-activated protein kinase kinase kinase 4 (Homo sapiens, UniProt Q9Y6R4).
The target in test [6] is T3, Serine/threonine-protein kinase Nek2 (Homo sapiens, UniProt P51955).
T3 sequence (P51955 whole entry): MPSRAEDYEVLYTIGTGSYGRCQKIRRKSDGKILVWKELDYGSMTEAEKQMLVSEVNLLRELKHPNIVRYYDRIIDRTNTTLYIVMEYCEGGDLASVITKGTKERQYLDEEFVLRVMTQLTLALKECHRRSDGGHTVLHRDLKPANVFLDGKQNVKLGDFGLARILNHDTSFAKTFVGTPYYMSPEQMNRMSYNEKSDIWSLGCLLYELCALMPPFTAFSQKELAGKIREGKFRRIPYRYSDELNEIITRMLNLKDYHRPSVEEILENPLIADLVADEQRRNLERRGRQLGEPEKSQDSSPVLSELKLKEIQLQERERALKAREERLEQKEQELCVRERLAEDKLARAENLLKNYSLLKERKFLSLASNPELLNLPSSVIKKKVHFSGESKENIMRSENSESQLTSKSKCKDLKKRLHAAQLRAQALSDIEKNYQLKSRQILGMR

For test [7], the target named is Cyclin-dependent kinase 13 (Homo sapiens, UniProt Q14004).
The target in test [8] is T4, Serine/threonine-protein kinase D2 (Homo sapiens, UniProt Q9BZL6).
T4 sequence (Q9BZL6 whole entry): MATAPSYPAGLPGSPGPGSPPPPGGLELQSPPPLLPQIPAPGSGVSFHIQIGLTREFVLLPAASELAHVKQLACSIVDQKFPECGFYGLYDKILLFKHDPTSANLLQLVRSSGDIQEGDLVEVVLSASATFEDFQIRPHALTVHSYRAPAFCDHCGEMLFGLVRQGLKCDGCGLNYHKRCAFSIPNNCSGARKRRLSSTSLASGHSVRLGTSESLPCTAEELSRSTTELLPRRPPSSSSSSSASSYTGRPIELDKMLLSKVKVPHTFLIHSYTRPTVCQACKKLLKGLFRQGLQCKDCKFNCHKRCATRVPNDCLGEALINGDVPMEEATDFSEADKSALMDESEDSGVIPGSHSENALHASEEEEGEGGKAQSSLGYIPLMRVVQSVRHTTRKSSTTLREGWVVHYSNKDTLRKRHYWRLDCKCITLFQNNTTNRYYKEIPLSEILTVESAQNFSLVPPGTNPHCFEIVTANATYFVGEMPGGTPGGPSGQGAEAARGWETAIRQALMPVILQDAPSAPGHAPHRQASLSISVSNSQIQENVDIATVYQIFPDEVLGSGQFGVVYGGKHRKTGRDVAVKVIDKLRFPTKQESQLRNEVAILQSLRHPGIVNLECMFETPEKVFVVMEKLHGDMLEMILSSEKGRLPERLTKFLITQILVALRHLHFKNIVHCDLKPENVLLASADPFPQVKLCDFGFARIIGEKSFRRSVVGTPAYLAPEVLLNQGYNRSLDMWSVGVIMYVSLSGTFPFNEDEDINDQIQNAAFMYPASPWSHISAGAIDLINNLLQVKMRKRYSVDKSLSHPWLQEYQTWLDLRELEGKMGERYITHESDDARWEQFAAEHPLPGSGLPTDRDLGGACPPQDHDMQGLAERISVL

For test [9], the target named is Tyrosine-protein kinase JAK1 (Homo sapiens, UniProt P23458).
Test [10] concerns the target Mitotic checkpoint serine/threonine-protein kinase BUB1 (Homo sapiens, UniProt O43683).
Test [11] has as its target Platelet-derived growth factor receptor beta (Homo sapiens, UniProt P09619).
The target in test [12] is DnaJ homolog subfamily A member 1 (Homo sapiens, UniProt P31689).
Sequence of DnaJ homolog subfamily A member 1 (P31689 whole entry): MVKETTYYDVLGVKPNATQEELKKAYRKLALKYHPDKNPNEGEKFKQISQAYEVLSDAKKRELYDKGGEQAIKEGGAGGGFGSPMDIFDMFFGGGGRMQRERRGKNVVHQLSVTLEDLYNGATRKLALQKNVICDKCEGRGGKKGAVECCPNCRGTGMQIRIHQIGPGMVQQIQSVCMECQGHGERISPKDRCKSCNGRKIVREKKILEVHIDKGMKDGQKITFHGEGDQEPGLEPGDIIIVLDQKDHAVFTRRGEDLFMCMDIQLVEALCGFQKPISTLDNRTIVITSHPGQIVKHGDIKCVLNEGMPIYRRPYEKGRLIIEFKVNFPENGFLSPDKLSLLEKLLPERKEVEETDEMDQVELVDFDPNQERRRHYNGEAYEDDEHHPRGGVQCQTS
For test [13], the target named is Ephrin type-A receptor 4 (Homo sapiens, UniProt P54764).
Sequence of Ephrin type-A receptor 4 (P54764 whole entry): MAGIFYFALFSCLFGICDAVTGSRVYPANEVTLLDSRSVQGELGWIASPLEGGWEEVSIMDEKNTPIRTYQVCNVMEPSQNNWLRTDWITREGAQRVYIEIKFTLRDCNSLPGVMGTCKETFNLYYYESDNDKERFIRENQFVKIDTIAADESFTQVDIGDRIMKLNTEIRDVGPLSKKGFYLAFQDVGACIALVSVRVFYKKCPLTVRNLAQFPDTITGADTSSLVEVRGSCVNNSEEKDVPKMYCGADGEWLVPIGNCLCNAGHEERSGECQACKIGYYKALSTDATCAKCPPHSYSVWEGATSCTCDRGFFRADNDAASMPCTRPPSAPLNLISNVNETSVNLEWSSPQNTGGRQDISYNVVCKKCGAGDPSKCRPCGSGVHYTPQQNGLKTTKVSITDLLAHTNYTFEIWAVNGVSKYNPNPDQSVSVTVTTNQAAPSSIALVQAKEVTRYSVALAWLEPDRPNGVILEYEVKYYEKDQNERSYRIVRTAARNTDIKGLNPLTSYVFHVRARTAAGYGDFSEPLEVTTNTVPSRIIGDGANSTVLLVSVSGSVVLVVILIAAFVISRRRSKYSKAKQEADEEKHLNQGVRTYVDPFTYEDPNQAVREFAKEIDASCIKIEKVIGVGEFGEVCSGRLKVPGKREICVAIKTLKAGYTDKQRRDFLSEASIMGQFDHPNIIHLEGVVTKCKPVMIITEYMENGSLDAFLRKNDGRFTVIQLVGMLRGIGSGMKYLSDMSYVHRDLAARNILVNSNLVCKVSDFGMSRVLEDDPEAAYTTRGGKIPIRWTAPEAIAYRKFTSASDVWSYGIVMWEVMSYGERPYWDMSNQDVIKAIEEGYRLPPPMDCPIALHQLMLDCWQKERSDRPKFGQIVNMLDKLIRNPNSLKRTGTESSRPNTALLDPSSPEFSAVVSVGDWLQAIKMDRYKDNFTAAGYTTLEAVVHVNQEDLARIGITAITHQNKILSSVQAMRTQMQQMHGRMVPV
Test [14] addresses ATP-dependent RNA helicase DDX3X (Homo sapiens, UniProt O00571).

Sequence of Mitogen-activated protein kinase kinase kinase 4 (Q9Y6R4 whole entry): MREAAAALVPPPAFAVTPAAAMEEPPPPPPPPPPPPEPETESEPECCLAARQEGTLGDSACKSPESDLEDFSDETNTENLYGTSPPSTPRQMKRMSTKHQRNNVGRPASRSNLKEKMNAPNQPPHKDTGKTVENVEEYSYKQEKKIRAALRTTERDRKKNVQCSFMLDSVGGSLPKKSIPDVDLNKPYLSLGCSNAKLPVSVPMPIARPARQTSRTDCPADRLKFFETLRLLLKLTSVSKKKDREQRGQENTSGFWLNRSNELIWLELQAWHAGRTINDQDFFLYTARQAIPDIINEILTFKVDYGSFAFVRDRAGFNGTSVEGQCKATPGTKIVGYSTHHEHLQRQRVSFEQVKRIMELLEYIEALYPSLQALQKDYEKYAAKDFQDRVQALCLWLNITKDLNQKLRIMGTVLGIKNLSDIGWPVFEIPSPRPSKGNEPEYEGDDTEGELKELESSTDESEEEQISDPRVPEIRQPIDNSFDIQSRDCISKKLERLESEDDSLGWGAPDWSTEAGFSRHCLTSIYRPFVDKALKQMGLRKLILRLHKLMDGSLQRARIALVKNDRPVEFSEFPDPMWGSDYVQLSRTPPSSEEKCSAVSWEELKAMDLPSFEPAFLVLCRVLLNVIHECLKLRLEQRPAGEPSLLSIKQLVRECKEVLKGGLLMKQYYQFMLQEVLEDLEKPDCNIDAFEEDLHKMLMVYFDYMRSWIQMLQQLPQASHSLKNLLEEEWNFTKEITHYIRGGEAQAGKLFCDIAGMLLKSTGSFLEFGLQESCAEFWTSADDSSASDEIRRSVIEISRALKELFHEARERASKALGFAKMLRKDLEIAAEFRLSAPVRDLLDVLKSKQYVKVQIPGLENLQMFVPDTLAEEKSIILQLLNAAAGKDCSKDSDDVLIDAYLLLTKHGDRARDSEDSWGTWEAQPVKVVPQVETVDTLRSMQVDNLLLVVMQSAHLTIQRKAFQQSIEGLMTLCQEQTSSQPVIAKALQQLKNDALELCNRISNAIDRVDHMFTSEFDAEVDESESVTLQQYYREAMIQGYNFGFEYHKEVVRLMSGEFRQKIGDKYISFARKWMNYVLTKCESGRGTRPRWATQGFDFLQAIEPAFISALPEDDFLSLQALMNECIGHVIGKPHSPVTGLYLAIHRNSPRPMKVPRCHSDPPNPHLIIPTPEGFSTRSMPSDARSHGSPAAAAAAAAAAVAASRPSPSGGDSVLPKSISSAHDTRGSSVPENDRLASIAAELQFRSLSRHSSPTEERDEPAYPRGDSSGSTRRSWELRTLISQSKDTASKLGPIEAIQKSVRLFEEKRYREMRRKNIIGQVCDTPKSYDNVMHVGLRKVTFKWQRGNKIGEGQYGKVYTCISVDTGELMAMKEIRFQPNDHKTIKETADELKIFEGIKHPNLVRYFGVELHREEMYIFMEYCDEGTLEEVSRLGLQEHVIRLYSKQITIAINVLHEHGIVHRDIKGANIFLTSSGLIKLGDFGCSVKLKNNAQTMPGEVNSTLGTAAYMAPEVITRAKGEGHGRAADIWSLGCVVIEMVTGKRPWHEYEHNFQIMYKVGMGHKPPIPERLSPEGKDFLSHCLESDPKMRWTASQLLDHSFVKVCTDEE
Sequence of Platelet-derived growth factor receptor beta (P09619 whole entry): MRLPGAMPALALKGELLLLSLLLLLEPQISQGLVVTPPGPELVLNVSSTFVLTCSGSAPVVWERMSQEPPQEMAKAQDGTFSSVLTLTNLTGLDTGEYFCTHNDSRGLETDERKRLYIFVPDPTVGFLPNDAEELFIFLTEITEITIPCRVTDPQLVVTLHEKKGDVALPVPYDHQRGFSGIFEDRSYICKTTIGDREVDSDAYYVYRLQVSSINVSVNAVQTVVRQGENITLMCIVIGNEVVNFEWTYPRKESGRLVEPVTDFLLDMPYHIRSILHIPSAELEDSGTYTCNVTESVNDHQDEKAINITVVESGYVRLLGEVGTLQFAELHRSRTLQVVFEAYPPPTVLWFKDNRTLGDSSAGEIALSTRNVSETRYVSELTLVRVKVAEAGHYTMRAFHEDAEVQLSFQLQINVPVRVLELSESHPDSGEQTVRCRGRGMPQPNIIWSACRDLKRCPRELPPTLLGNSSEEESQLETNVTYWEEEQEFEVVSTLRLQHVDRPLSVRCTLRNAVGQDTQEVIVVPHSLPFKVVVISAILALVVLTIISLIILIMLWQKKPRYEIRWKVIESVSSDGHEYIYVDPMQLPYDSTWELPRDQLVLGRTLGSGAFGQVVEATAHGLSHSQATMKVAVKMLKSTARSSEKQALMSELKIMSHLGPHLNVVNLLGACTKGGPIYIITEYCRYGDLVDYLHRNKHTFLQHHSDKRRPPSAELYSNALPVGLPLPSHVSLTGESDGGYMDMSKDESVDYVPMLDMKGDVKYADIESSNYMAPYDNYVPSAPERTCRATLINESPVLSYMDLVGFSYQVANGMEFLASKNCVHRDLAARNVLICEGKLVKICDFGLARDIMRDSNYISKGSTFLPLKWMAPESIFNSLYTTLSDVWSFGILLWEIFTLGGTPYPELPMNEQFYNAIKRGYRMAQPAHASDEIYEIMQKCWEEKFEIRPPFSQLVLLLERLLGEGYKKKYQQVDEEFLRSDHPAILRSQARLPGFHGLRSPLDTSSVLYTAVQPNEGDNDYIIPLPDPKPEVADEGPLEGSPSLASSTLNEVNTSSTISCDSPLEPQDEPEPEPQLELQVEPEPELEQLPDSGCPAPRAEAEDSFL
Sequence of ATP-dependent RNA helicase DDX3X (O00571 whole entry): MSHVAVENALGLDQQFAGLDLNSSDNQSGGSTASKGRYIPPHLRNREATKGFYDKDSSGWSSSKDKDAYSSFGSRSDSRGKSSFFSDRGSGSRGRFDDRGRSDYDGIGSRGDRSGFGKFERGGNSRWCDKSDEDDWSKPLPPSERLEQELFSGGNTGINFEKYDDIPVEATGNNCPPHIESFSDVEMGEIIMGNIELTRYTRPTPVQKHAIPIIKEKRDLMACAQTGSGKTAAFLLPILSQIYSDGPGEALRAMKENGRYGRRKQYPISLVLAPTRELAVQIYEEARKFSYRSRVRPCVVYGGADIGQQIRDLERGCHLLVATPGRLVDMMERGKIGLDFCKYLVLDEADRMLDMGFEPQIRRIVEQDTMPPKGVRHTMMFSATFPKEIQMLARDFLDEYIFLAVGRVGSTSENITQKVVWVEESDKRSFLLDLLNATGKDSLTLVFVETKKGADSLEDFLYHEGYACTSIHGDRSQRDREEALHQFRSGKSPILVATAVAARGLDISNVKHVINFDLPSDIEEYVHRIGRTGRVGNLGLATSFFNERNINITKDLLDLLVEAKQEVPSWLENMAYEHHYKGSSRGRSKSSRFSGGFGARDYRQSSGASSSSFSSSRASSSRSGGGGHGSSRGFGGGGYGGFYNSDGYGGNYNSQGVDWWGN

In the case of `CCn1c(=O)c(-c2cc[nH]n2)cc2c(C)nc(N)nc21` [VOXTALISIB], the Kd in [1], in [2], in test [3], in [4], in [5] and in test [6] was > 30 µM (inactive) in each case. Also, the Kd in test [7], in test [8], in [9], in test [10], in [11] and in [12] was > 30 µM (inactive) in each case. In addition, the Kd in [13] and in [14] was > 30 µM (inactive) in each case.

`Cn1cc(-c2ccc(F)c(C(F)(F)F)c2)nc1C1CCN(c2ncnc3[nH]ncc23)CC1` [LY-2584702]: the Kd in test [1], in test [2], in test [3], in [4], in test [5] and in [6] was > 30 µM (inactive) in each case. For the same compound, the Kd in test [7], in test [8], in test [9], in test [10], in test [11] and in [12] was > 30 µM (inactive) each time. Further, the Kd in test [13] and in [14] was > 30 µM (inactive) in each case.

Consider `Cc1cc2c(F)c(Oc3ncnn4cc(OC[C@@H](C)OC(=O)[C@H](C)N)c(C)c34)ccc2[nH]1` [BRIVANIB ALANINATE], for which the Kd in [1], in test [2], in test [3], in test [4], in test [5] and in test [6] was > 30 µM (inactive) each time. For the same compound, the Kd (as a rule, a measure of binding affinity in units of concentration) in [7] was > 30 µM (inactive); in test [8], > 30 µM (inactive); in test [9] it was > 30 µM (inactive); in [10] it was > 30 µM (inactive); in [11] it was 1.89 µM (active); in test [12], > 30 µM (inactive). Also, the Kd in test [13] and in test [14] was > 30 µM (inactive) each time.

On to `COC(=O)N[C@@H](C)CNc1nccc(-c2cn(C(C)C)nc2-c2cc(Cl)cc(NS(C)(=O)=O)c2F)n1` [ENCORAFENIB], for which the Kd in [1] was > 30 µM (inactive); in [2] it was > 30 µM (inactive); in test [3] it was > 30 µM (inactive); in test [4], > 30 µM (inactive); in test [5], 1.44 µM (active); in test [6] it was > 30 µM (inactive). The Kd in test [7], in test [8], in test [9], in test [10], in test [11] and in [12] was > 30 µM (inactive) in each case. For the same compound, the Kd in test [13] and in test [14] was > 30 µM (inactive) each time.

Consider `Cc1c(F)cc(C(=O)NC2CC2)cc1-c1ccc(C(=O)NCC(C)(C)C)cn1` [LOSMAPIMOD], for which the Kd in test [1], in [2], in test [3], in test [4], in test [5] and in test [6] was > 30 µM (inactive) in each case. Also, the Kd in test [7] was > 30 µM (inactive); in test [8], > 30 µM (inactive); in test [9], > 30 µM (inactive); in test [10] it was 1.92 µM; in test [11], > 30 µM (inactive); in [12], > 30 µM (inactive). In addition, the Kd in test [13] and in test [14] was > 30 µM (inactive) each time.

For `Cc1cc(-c2cc(O)ccc2Cl)cc2nnc(Nc3ccc(OCCN4CCCC4)cc3)nc12`, the Kd in [1] is > 30 µM (inactive); in [2], > 30 µM (inactive); in test [3], > 30 µM (inactive); in [4] it was 0.003 µM (active); in test [5] it was > 30 µM (inactive); in test [6], > 30 µM (inactive). In addition, the Kd in [7] is > 30 µM (inactive); in [8] it was 0.003 µM (active); in test [9] it was > 30 µM (inactive); in test [10] it was > 30 µM (inactive); in test [11], > 30 µM (inactive); in [12] it was > 30 µM (inactive). The Kd is 0.002 µM (active) in test [13] and > 30 µM (inactive) in test [14].

For `C=CC(=O)N1CCC(Oc2cc3c(Nc4ccc(Cl)c(Cl)c4F)ncnc3cc2OC)CC1` [POZIOTINIB], the Kd in test [1], in [2], in test [3], in test [4], in [5] and in test [6] was > 30 µM (inactive) each time. For the same compound, the Kd in test [7], in [8], in test [9], in [10], in [11] and in [12] was > 30 µM (inactive) in each case. The Kd is 7.06 µM (active) in test [13] and > 30 µM (inactive) in test [14].

With `O=C1NC(=O)/C(=C/c2ccc3nccc(-c4ccncc4)c3c2)S1` [GSK-1059615], the Kd in [1], in test [2], in test [3], in test [4], in test [5] and in test [6] was > 30 µM (inactive) each time. Also, the Kd in [7], in test [8], in [9], in test [10], in test [11] and in [12] was > 30 µM (inactive) in each case. In addition, the Kd in test [13] and in [14] was > 30 µM (inactive) each time.
